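Grown in 96-well plates, cells were treated for 48 hours with each compound at five concentrations. Insufficient inhibition: endpoint recorded as highest concentration tested. The concentration for 50% growth inhibition is given as GI50.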 The source made the active and inactive calls. Rule as the data show it: active = GI50 up to about 1.1 µM and inactive = higher.
What was measured:
Experiment in all cases: NCI tumour cell line growth inhibition, 48 h
ACHN = system: ACHN
BT-549 = system: BT-549
CCRF-CEM = system: CCRF-CEM
HCT-116 = system: HCT-116
Hs-578T = system: Hs-578T
K562 = system: K562
MDA-MB-435 = system: MDA-MB-435
NCI-H23 = system: NCI-H23
NCI-H522 = system: NCI-H522
OVCAR-3 = system: OVCAR-3
OVCAR-5 = system: OVCAR-5
OVCAR-8 = system: OVCAR-8
PC-3 = system: PC-3
RXF 393 = system: RXF 393
SF-295 = system: SF-295
SK-MEL-28 = system: SK-MEL-28
SN12C = system: SN12C
UACC-257 = system: UACC-257
UO-31 = system: UO-31
SNB-75 = system: SNB-75

Row | SMILES | GI50 (ACHN) | GI50 (BT-549) | GI50 (CCRF-CEM) | GI50 (HCT-116) | GI50 (Hs-578T) | GI50 (K562) | GI50 (MDA-MB-435) | GI50 (NCI-H23) | GI50 (NCI-H522) | GI50 (OVCAR-3) | GI50 (OVCAR-5) | GI50 (OVCAR-8) | GI50 (PC-3) | GI50 (RXF 393) | GI50 (SF-295) | GI50 (SK-MEL-28) | GI50 (SN12C) | GI50 (UACC-257) | GI50 (UO-31) | GI50 (SNB-75)
1 | O=C(Cc1nc2ncccc2[nH]c1=O)c1c[nH]c2ccccc12 | 16.5 µM (inactive) | 29.4 µM (inactive) | 13.4 µM (inactive) | 22.2 µM (inactive) | 18.6 µM (inactive) | 21.4 µM (inactive) | 15.9 µM (inactive) | 21.6 µM (inactive) | 16.6 µM (inactive) | 18 µM (inactive) | 24.2 µM (inactive) | 23.4 µM (inactive) | 16 µM (inactive) | 22 µM (inactive) | 16.5 µM (inactive) | 15.1 µM (inactive) | 18.2 µM (inactive) | 19.5 µM (inactive) | 17.7 µM (inactive) | 
2 | CC(C)c1cccc(C(=O)NCCN(C)C)c1[N+](=O)[O-] | > 100 µM (inactive) | 19.5 µM (inactive) | > 100 µM (inactive) | > 100 µM (inactive) | > 100 µM (inactive) | > 100 µM (inactive) | > 100 µM (inactive) | > 100 µM (inactive) | > 100 µM (inactive) | > 100 µM (inactive) | > 100 µM (inactive) | > 100 µM (inactive) | > 100 µM (inactive) |  | > 100 µM (inactive) | > 100 µM (inactive) | > 100 µM (inactive) | > 100 µM (inactive) | > 100 µM (inactive) | 35 µM (inactive)
3 | C#C[C@]1(O)CC[C@H]2[C@@H]3CCc4cc(OC(=O)c5cccc6cc7ccccc7nc56)ccc4[C@H]3CC[C@@]21C | 49 µM (inactive) | 74 µM (inactive) | 12.8 µM (inactive) | 24.3 µM (inactive) | 25.6 µM (inactive) | > 100 µM (inactive) | 31.2 µM (inactive) | 40.3 µM (inactive) | 15.5 µM (inactive) | 21.4 µM (inactive) | 43.8 µM (inactive) | 40.8 µM (inactive) | 35.9 µM (inactive) | 44.4 µM (inactive) |  | 35.9 µM (inactive) | 20.9 µM (inactive) | 63.4 µM (inactive) |  | 31.2 µM (inactive)
4 | O=C(CCc1ccccc1)ON1C(=S)C(c2ccccc2)(c2ccccc2)N=C1Sc1ccccc1 | 48.1 µM (inactive) | 54 µM (inactive) | 20.3 µM (inactive) | 19.3 µM (inactive) | 38.7 µM (inactive) | 36.1 µM (inactive) |  | 34.4 µM (inactive) |  | 60 µM (inactive) | > 100 µM (inactive) | 38.7 µM (inactive) | 34.3 µM (inactive) | > 100 µM (inactive) | 31 µM (inactive) |  | 68.5 µM (inactive) | > 100 µM (inactive) | 60.3 µM (inactive) | 37.9 µM (inactive)
5 | CCOC(=O)CCN1C(=O)c2ccc(NC(=O)C(=O)O)cc2S1(=O)=O | > 100 µM (inactive) | > 100 µM (inactive) | > 100 µM (inactive) | > 100 µM (inactive) | > 100 µM (inactive) | > 100 µM (inactive) | > 100 µM (inactive) | > 100 µM (inactive) | > 100 µM (inactive) | > 100 µM (inactive) | > 100 µM (inactive) | > 100 µM (inactive) | > 100 µM (inactive) |  | > 100 µM (inactive) | > 100 µM (inactive) | > 100 µM (inactive) | > 100 µM (inactive) | > 100 µM (inactive) | > 100 µM (inactive)
6 | COC(=O)[C@]1(CCC(C)=O)C(=O)C=CN([C@H](C)c2ccccc2)[C@@H]1Cc1ccc(OC)c(OCc2ccccc2)c1I | 25.7 µM (inactive) | 24.1 µM (inactive) | 25.4 µM (inactive) | 14 µM (inactive) | 24 µM (inactive) | 17.8 µM (inactive) | 18.1 µM (inactive) | 23.7 µM (inactive) | 20 µM (inactive) | 16.8 µM (inactive) | 22.7 µM (inactive) | 22 µM (inactive) | 16.6 µM (inactive) | 11.4 µM (inactive) | 17.7 µM (inactive) | 35.2 µM (inactive) | 18 µM (inactive) | 16.7 µM (inactive) | 15.2 µM (inactive) | 
7 | COC(=O)c1ccc2[nH]c3c(c2c1)CC(=O)Nc1ccccc1-3 | > 100 µM (inactive) | 1.86 µM (inactive) |  | > 100 µM (inactive) | > 100 µM (inactive) | 27.4 µM (inactive) | > 100 µM (inactive) |  | > 100 µM (inactive) | > 100 µM (inactive) | 60.3 µM (inactive) | 5.9 µM (inactive) | > 100 µM (inactive) |  | > 100 µM (inactive) | > 100 µM (inactive) | > 100 µM (inactive) | > 100 µM (inactive) | 0.0278 µM (active) | 2.3 µM (inactive)

— ChEMBL document CHEMBL1201862, “PubChem BioAssay data set” (2004)
